According to US12310973B2, “Administration and dosage of diaminophenothiazines” (WisTa Laboratories Ltd., priority 2016, dated 2025):
“And” between values parts separate entries of the source, which are not always exact repeats. Equal values may be shown once.

Assays:
Type in all cases: in vivo, human
[1] = test system: mild to moderate AD patients; assay: Phase 3 trial in mild to moderate AD: ADAS-cog change from baseline
Excerpt: (§1) The co-primary efficacy outcomes were change from baseline in 11-item Alzheimer's Disease Assessment Scale—cognitive subscale (ADAS-cog) and the 23-item Alzheimer's Disease Cooperative Study Activities of Daily Living (ADCS-ADL). Magnetic resonance imaging (MRI) volumetry was chosen as the principal secondary outcome to support a potential effect on the rate of brain atrophy (Fox et al., 1997; Ridha et al., 2008). Change in Lateral Ventricular Volume (LVV), as measured by the Ventricular Boundary Shift Integral (VBSI), (Salloway et al., 2014) was chosen as the principal measure as it provides high-contrast boundaries for measurement and is less affected by motion artefacts than whole brain or smaller structures. Key supportive topographical measures (temporo-parietal (TPV) and hippocampal volume (HV)) are also reported.
(§2) Patients were recruited at 115 sites across 16 countries between January 2013 and August 2014. Enrolment of approximately 833 patients was targeted, with 891 patients actually recruited, in order to obtain data on approximately 500 patients completing the study, assuming a 30-40% drop-out rate. […] Adult caregiver(s) were required to participate. Concomitant use of AChEIs and/or memantine was permitted, provided the patient had been taking the medication(s) for […], with no changes to the dosage for 26 weeks prior to screening. Concomitant use of serotonergic antidepressant medication was permitted, but patients were monitored closely using a targeted rating scale derived from 4 published diagnostic criteria (Alusik et al., 2014) due to a theoretical potential for serotonin syndrome (Ramsay et al., 2007). […] Because MT^+ in high doses can induce methaemoglobinaemia, subjects with glucose-6-phosphate dehydrogenase deficiency or who were otherwise at haematological risk were excluded. Other inclusion/exclusion criteria are provided in the Supplementary Materials.
(§3) Patients were randomised at baseline to LMTM 75 mg b.i.d. or 125 mg b.i.d. (expressed as MT base equivalent) or control in a 3:3:4 ratio. The randomisation was stratified according to geographical region (3 levels: North America, Europe, rest of world), use of AD-labelled co-medications (2 levels, using or not using) and severity (2 levels, moderate MMSE 14-19 inclusive, mild MMSE 20-26 inclusive). Patients in the control arm received a dose of 4 mg b.i.d. to maintain blinding.
(§4) ADAS-cog and ADCS-ADL assessments were performed at baseline and every 13 weeks thereafter, with change at 65 weeks (the final on-treatment visit) the primary efficacy measures. These were repeated at the final off-treatment follow-up visit at Week 69. Secondary efficacy measures included Clinical Global Impression of Change (ADCS-CGIC, administered by an independent rater); MMSE, administered on screening and at Weeks 26, 52, 65 and 69. Brain MRI scans were performed at baseline/screening and every 13 weeks using a standardized protocol including volumetric 3D T1-weighted data consistent with ADNI recommendations, FLAIR, T2* Gradient Echo and T2-weighted sequences. Diffusion-Weighted Imaging was also available at screening in order to exclude patients with co-existing pathology that would lead to a diagnosis other than probable AD. Each site was first qualified ensuring standardised acquisition protocol, patient handling and data management. MRI data were centrally collected by Imaging Corelab (Bioclinica). Data were centrally reviewed by RadMD for eligibility and safety (Amyloid Related Imaging Abnormalities, or ARIA monitoring) on an on-going basis. Volumetric 3DT1 data were also reviewed centrally in order to measure (using a boundary shift integral (BSI) technique; Salloway et al., 2014) change in LVV as principal secondary outcome measure, and as exploratory endpoints temporo-parietal volume (TPV), whole brain volume (WBV) and hippocampal volume (HV, estimated as the mean of left and right) (Wischik et al., 2016). […]

[2] = test system: mild to moderate AD patients; assay: Phase 3 trial in mild to moderate AD: ADCS-ADL change from baseline
Excerpt: as §1, §2, §3, §4

Mild AD patients = assay: Further 18-month Phase 3 trial in mild AD
Protocol: To examine the potential efficacy of LMTM as monotherapy in non-randomised observational cohort analyses as modified primary outcomes in an 18-months Phase 3 trial in mild AD.
Mild AD patients (n=800) were randomly assigned to 100 mg twice a day or 4 mg twice a day.
The Statistical Analysis Plan was revised in light of Example 3 (which completed earlier) prior to database lock and unblinding, to compare the 100 mg twice a day as monotherapy subgroup (n=79) versus 4 mg twice a day as randomised (n=396), and 4 mg twice a day as monotherapy (n=76) versus 4 mg twice a day as add-on therapy (n=297), with strong control of family-wise type I error.
We therefore modified the primary analyses and treatment comparisons in the study described in this Example (prior to database lock and unblinding) to investigate whether the monotherapy differences could be confirmed as observational cohort comparisons defined as primary outcomes with strong control of family-wise type I error in the second independent study. The monotherapy cohort comparisons which were of particular interest in light of the earlier study were: (A) 100 mg twice a day a monotherapy compared with the controls as originally randomised, and (B) 4 mg twice a day as monotherapy compared with the same dose as add-on to standard AD treatments.

[3] = 75 mg b.i.d. monotherapy, 65 weeks
[4] = 125 mg b.i.d. monotherapy, 65 weeks
[5] = Table 2 primary analysis, 65 weeks, covariates additive, control arm (LMTM 4 mg b.i.d.)
[6] = Table 2 primary analysis, 65 weeks, 75 mg b.i.d.
[7] = Table 2 primary analysis, 65 weeks, 125 mg b.i.d.
[8] = Table 2 primary analysis, 65 weeks, patients not using AChEI/Mem (additive covariate)
[9] = Table 3, AChEI/Mem as interaction term, 65 weeks, 75 mg b.i.d. + AChEI/Mem
[10] = Table 3, AChEI/Mem as interaction term, 65 weeks, 75 mg b.i.d. monotherapy
[11] = Table 3, AChEI/Mem as interaction term, 65 weeks, 125 mg b.i.d. + AChEI/Mem
[12] = Table 3, AChEI/Mem as interaction term, 65 weeks, 125 mg b.i.d. monotherapy
[13] = Table 3, AChEI/Mem as interaction term, 65 weeks, control arm (4 mg b.i.d.)
[14] = Table 4 post-hoc, control-arm subjects, 4 mg b.i.d. + AChEI/Mem
[15] = Table 4 post-hoc, control-arm subjects, 4 mg b.i.d. monotherapy vs 4 mg b.i.d. + AChEI/Mem
[16] = Table 7, mild AD, 4 mg b.i.d. + AChEI/Mem (control-arm subjects)
[17] = Table 7, mild AD, 4 mg b.i.d. alone vs 4 mg b.i.d. + AChEI/Mem
[18] = Table 7, mild AD, 75 mg b.i.d. alone vs control arm as randomised
[19] = Table 7, mild AD, 125 mg b.i.d. alone vs control arm as randomised
[20] = Table 7, mild AD, control arm as randomised (4 mg b.i.d.)
[21] = Table 7, moderate AD, 4 mg b.i.d. + AChEI/Mem (control-arm subjects)
[22] = Table 7, moderate AD, 4 mg b.i.d. alone vs 4 mg b.i.d. + AChEI/Mem
[23] = Table 7, moderate AD, 75 mg b.i.d. alone vs control arm as randomised
[24] = Table 7, moderate AD, 125 mg b.i.d. alone vs control arm as randomised
[25] = Table 7, moderate AD, control arm as randomised (4 mg b.i.d.)
[26] = control arm (LMTM 4 mg b.i.d.), 12 months
[27] = mild patients, LMTM monotherapy

## CN(C)c1ccc2c(c1)Sc1cc(N(C)C)ccc1N2 [LMTM, leuco-methythioninium bis(hydromethanesulfonate)]
[1]; [3]
  ADAS-cog treatment effect as % of the decline over 65 weeks seen in the control arm (mean±SE): 103%±23%
[1]; [4]
  ADAS-cog treatment effect as % of the decline over 65 weeks seen in the control arm (mean±SE): 83%±23%
[1]; [5]
  ADAS-cog, Estimate (change from baseline): 6.32 ADAS-cog units
[1]; [6]
  ADAS-cog, Estimate (difference with respect to control): −0.02 ADAS-cog units
[1]; [7]
  ADAS-cog, Estimate (difference with respect to control): −0.43 ADAS-cog units
[1]; [8]
  ADAS-cog, Estimate (mean additive treatment benefit): −2.30 ADAS-cog units
[1]; [9]
  ADAS-cog, Estimate (difference vs control): 1.02 ADAS-cog units
[1]; [10]
  ADAS-cog, Estimate (difference vs control): −6.25 ADAS-cog units
[1]; [11]
  ADAS-cog, Estimate (difference vs control): 0.50 ADAS-cog units
[1]; [12]
  ADAS-cog, Estimate (difference vs control): −5.79 ADAS-cog units
[1]; [13]
  ADAS-cog, Estimate (change from baseline): 5.98 ADAS-cog units
[1]; [14]
  ADAS-cog, Estimate (change from baseline): 6.79 ADAS-cog units
[1]; [15]
  ADAS-cog, Estimate (difference): −5.90 ADAS-cog units
[1]; [16]
  ADAS-cog, Estimate (change from baseline): 3.24 ADAS-cog units
[1]; [17]
  ADAS-cog, Estimate (difference): −6.41 ADAS-cog units
[1]; [18]
  ADAS-cog, Estimate (difference): −8.89 ADAS-cog units
[1]; [19]
  ADAS-cog, Estimate (difference): −5.03 ADAS-cog units
[1]; [20]
  ADAS-cog, Estimate (change from baseline): 2.27 ADAS-cog units
[1]; [21]
  ADAS-cog, Estimate (change from baseline): 8.49 ADAS-cog units
[1]; [22]
  ADAS-cog, Estimate (difference): −4.74 ADAS-cog units
[1]; [23]
  ADAS-cog, Estimate (difference): −2.01 ADAS-cog units
[1]; [24]
  ADAS-cog, Estimate (difference): −5.75 ADAS-cog units
[1]; [25]
  ADAS-cog, Estimate (change from baseline): 7.89 ADAS-cog units
[1]; [26]
  ADAS-cog decline at 12 months (mean±se): 3.85±0.47
[1]; [27]
  Mean treatment benefit relative to control on ADAS-cog: 240%±41%
[2]; [3]
  ADCS-ADL effect size as % of the decline over 65 weeks seen in the control arm: 82%±23%
[2]; [4]
  ADCS-ADL effect size as % of the decline over 65 weeks seen in the control arm: 88%±23%
[2]; [5]
  ADCS-ADL, Estimate (change from baseline): −8.22 ADCS-ADL units
[2]; [6]
  ADCS-ADL, Estimate (difference with respect to control): −0.93 ADCS-ADL units
[2]; [7]
  ADCS-ADL, Estimate (difference with respect to control): −0.34 ADCS-ADL units
[2]; [8]
  ADCS-ADL, Estimate (mean additive treatment benefit): 2.00 ADCS-ADL units
[2]; [9]
  ADCS-ADL, Estimate (difference vs control): −2.16 ADCS-ADL units
[2]; [10]
  ADCS-ADL, Estimate (difference vs control): 6.48 ADCS-ADL units
[2]; [11]
  ADCS-ADL, Estimate (difference vs control): −1.62 ADCS-ADL units
[2]; [12]
  ADCS-ADL, Estimate (difference vs control): 6.92 ADCS-ADL units and 6.93 ADCS-ADL units
[2]; [13]
  ADCS-ADL, Estimate (change from baseline): −7.92 ADCS-ADL units
[2]; [14]
  ADCS-ADL, Estimate (change from baseline): −8.90 ADCS-ADL units
[2]; [15]
  ADCS-ADL, Estimate (difference): 7.19 ADCS-ADL units
[2]; [16]
  ADCS-ADL, Estimate (change from baseline): −3.86 ADCS-ADL units
[2]; [17]
  ADCS-ADL, Estimate (difference): 5.20 ADCS-ADL units
[2]; [18]
  ADCS-ADL, Estimate (difference): 4.65 ADCS-ADL units
[2]; [19]
  ADCS-ADL, Estimate (difference): 7.77 ADCS-ADL units
[2]; [20]
  ADCS-ADL, Estimate (change from baseline): −3.20 ADCS-ADL units
[2]; [21]
  ADCS-ADL, Estimate (change from baseline): −11.91 ADCS-ADL units
[2]; [22]
  ADCS-ADL, Estimate (difference): 7.70 ADCS-ADL units
[2]; [23]
  ADCS-ADL, Estimate (difference): 6.89 ADCS-ADL units
[2]; [24]
  ADCS-ADL, Estimate (difference): 5.53 ADCS-ADL units
[2]; [25]
  ADCS-ADL, Estimate (change from baseline): −10.93 ADCS-ADL units
[2]; [26]
  ADCS-ADL decline at 12 months (mean±se): −6.51±0.63
[2]; [27]
  Mean treatment benefit relative to control on ADCS-ADL: 156%±39%
Mild AD patients; 4 mg twice a day
  Withdrawal rate over 18 months: 25%
Mild AD patients; 100 mg twice a day
  Withdrawal rate over 18 months: 46%
Mild AD patients; 100 mg twice a day monotherapy vs 4 mg twice a day as randomised, 4 mg twice a day monotherapy vs add-on, 18 months
  Revised analyses on ADAS-cog, ADCS-ADL, MRI atrophy and glucose uptake: statistically significant at the required threshold of p<0.025
Mild AD patients; after LMTM as monotherapy for 9 months, within-cohort comparison
  Annualised rate of whole brain atrophy: the rate was reduced to that reported for normal elderly controls
